Experimental data as given in ChEMBL document CHEMBL1151401, “Plant anticancer agents. XII. Isolation and structure elucidation of new cytotoxic quinones from Tabebuia cassinoides” (1982).
≈ marks a conversion by molar mass, not a printed value. Calls of active or inactive are those of the source. No cut-off for these calls is given here.

Experiments:
[1] = system: KB; experiment: Cytotoxicity against human KB cells; format: functional; details: read-out: ED50 (the source's name)
[2] = system: P388; experiment: In vivo cytotoxicity against mouse P388 cells at upto 35 mg/kg; format: functional, organism-based; parameters: dose 35 mg/kg

Structure (SMILES) | EC50 [1] [µg/mL] | Activity [2]
CC(O)c1cc2c(o1)C(=O)c1ccccc1C2=O (stereo not given) | 2 (≈ 8.26 µM) | –
CC(O)c1cc2c(o1)C(=O)c1c(O)cccc1C2=O (stereo not given) | 1 (≈ 3.87 µM) | –
CC(C)=CCC1=C(O)C(=O)c2ccccc2C1=O [LAPACHOL] | 4.4 (≈ 18.2 µM) | –
CC(=O)c1cc2c(o1)C(=O)c1ccccc1C2=O [NAPABUCASIN] | 1 (≈ 4.16 µM) | inactive
